Test results taken from patent publication US4064235A, “Dopamine derivative compounds, preparation thereof and medicine containing same” (Eisai Co., Ltd., priority 1975, dated 1977).

Legend:
renal blood flow rate = assay: Measurement of the renal blood flow increasing activity in anesthetized dogs; type: in vivo; settings: for Duration Time of Activity / Renal Blood Flow Rate Increase Ratio (%): 1 mg/Kg/min into the crotch vein continuously over 3 minutes; for Renal Blood Flow Rate Increase Ratio (%): increase at highest flow rate relative to flow rate before administration; for intensity of the activity and activity duration compared with known compound A: dogs, 1 mg/Kg/min for 3 minutes
Experimental: Measurement of the renal blood flow increasing activity. Compounds Tested:
Crossbred adult dogs (irrespective of the sex) having a body weight of about 15 Kg were used.
The test animal was anesthetized by an intravenous injection of pentobarbital sodium salt (30 mg/Kg) and the abdominal region was fixed. The back region was opened and a probe of a rectangular wave electromagnetic flow meter (Model MF-26 manufactured by Nippon Koden K. K.) was attached to the artery of the left kidney to determine the renal blood flow rate (R. B. F.).
Each test compound was dissolved in distilled water and administered to the test animal from a vinyl resin fine tube inserted and fixed into the crotch vein. The amount administered was 1 mg/Kg/min. and the administration was conducted continuously over a period of 3 minutes.
The degree of increase of the renal blood flow rate by administration of the test compound was expressed in terms of the increase ratio (%), namely the ratio of the increase of the flow rate (when the flow rate was highest) to the flow rate before administration of the test compound. The duration of the activity was simultaneously examined.

renal blood flow [1] = assay: tracing experiment on renal blood flow promoting activity of isoleucyl dopamine; type: in vivo
Description: Because of this specific activity, it has been considered to use dopamine for improving renal insufficiency accompanied by hyperpiesia or cardiac insufficiency and other similar diseases. However, since dopamine is promptly converted to norepinephrine or the like by metabolism and the activity is insufficient in duration, it has been difficult to put this compound into practical use.

renal blood flow [2] = settings: cited from earlier work

CC(=O)O.CCC(C)C(N)C(=O)NC(C(=O)NCCc1ccc(O)c(O)c1)C(C)C (stereo not drawn) [Compound A of Present Invention, n-l-isoleucylvalyl dopamine acetate]
Duration Time of Activity (renal blood flow rate; anesthetized dogs): 10 min
Renal Blood Flow Rate Increase Ratio (%) (renal blood flow rate; anesthetized dogs): 33%
intensity of the activity and activity duration compared with known compound A (renal blood flow rate): excellent over the known compound A

CC(=O)O.NCC(=O)N1CCC[C@H]1C(=O)NCCc1ccc(O)c(O)c1 [Compound C of Present Invention, N-Glycyl-L-prolyl dopamine acetate]
Duration Time of Activity (renal blood flow rate; anesthetized dogs): 60 min
Renal Blood Flow Rate Increase Ratio (%) (renal blood flow rate; anesthetized dogs): 30%
intensity of the activity and activity duration compared with known compound A (renal blood flow rate): excellent over the known compound A

CC(=O)O.CC(C)C[C@H](NC(=O)CNC(=O)CN)C(=O)NCCc1ccc(O)c(O)c1 [Compound D of Present Invention, N-Glycylglycyl-L-leucyl dopamine acetate]
Duration Time of Activity (renal blood flow rate; anesthetized dogs): 20 min
Renal Blood Flow Rate Increase Ratio (%) (renal blood flow rate; anesthetized dogs): 37%
intensity of the activity and activity duration compared with known compound A (renal blood flow rate): excellent over the known compound A

CC(=O)O.NCC(=O)NCC(=O)N1CCC[C@H]1C(=O)NCCc1ccc(O)c(O)c1 [Compound E of Present Invention, N-Glycylglycyl-L-prolyl dopamine acetate]
Duration Time of Activity (renal blood flow rate; anesthetized dogs): 30 min
Renal Blood Flow Rate Increase Ratio (%) (renal blood flow rate; anesthetized dogs): 36%
intensity of the activity and activity duration compared with known compound A (renal blood flow rate): excellent over the known compound A

CC(=O)O.CC[C@H](C)[C@H](N)C(=O)NCCc1ccc(O)c(O)c1 [Known Compound A, N-L-Isoleucyl dopamine acetate]
Duration Time of Activity (renal blood flow rate; anesthetized dogs): 6 min
Renal Blood Flow Rate Increase Ratio (%) (renal blood flow rate; anesthetized dogs): 10%
activity retention time compared with dopamine (renal blood flow [1]): longer than that of dopamine
renal blood flow promoting activity (renal blood flow [1]): low
durability of renal blood flow increasing activity compared with dopamine (renal blood flow [2]; literature: Am. Chem. So., 165, Meet. MEDI. 11, 1973): more durable than that of dopamine

NCCc1ccc(O)c(O)c1 [dopamine]
renal blood flow rate change by administration (renal blood flow rate; anesthetized dogs): increased
activity of increasing the renal blood flow (renal blood flow [2]; literature: Circulation Research, vol. XVI, 1965): specific activity of increasing the renal blood flow

N-Glycyl-L-glutamyl dopamine acetate [Compound B of Present Invention]
Duration Time of Activity (renal blood flow rate; anesthetized dogs): 60 min
Renal Blood Flow Rate Increase Ratio (%) (renal blood flow rate; anesthetized dogs): 33%
intensity of the activity and activity duration compared with known compound A (renal blood flow rate): excellent over the known compound A
